Laboratory results: PubChem BioAssay AID1963439 (Molecular Pharmacology Branch, DTP, NCI, 2024)

Tested on: NCI-H196 complex spheroids with HUVEC/MSC, growth % T/C
Test: Anticancer human tumor NCI-H196 cell line growth inhibition [Asc];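 further: spheroids exposed to compound for 7 days before measurement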;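 on viability, T/C: 100% = DMSO vehicle control wells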
Conditions: for IC50: curve of first compound; for viability, T/C: stronger effect = lower value
In short: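 Tumor cells were grown as complex spheroids with human endothelial cells (HUVEC) and human mesenchymal stem cells as stroma. Agents were tested alone and in combination, in half-log steps down from the clinical Cmax, or from 10 microM where Cmax was unknown.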

[1] = second compound 0.03 µM, first compound 0.0316 µM
[2] = second compound 0.03 µM, first compound 0.1 µM
[3] = second compound 0.03 µM, first compound 0.316 µM
[4] = second compound 0.03 µM, first compound 1 µM
[5] = second compound 0.03 µM, first compound 3.16 µM
[6] = second compound 0.03 µM, first compound 10 µM
[7] = second compound 0.0949 µM, first compound 0.0316 µM
[8] = second compound 0.0949 µM, first compound 0.1 µM
[9] = second compound 0.0949 µM, first compound 0.316 µM
[10] = second compound 0.0949 µM, first compound 1 µM
[11] = second compound 0.0949 µM, first compound 3.16 µM
[12] = second compound 0.0949 µM, first compound 10 µM
[13] = second compound 0.3 µM, first compound 0.0316 µM
[14] = second compound 0.3 µM, first compound 0.1 µM
[15] = second compound 0.3 µM, first compound 0.316 µM
[16] = second compound 0.3 µM, first compound 1 µM
[17] = second compound 0.3 µM, first compound 3.16 µM
[18] = second compound 0.3 µM, first compound 10 µM
[19] = second compound 0.949 µM, first compound 0.0316 µM
[20] = second compound 0.949 µM, first compound 0.1 µM
[21] = second compound 0.949 µM, first compound 0.316 µM
[22] = second compound 0.949 µM, first compound 1 µM
[23] = second compound 0.949 µM, first compound 3.16 µM
[24] = second compound 0.949 µM, first compound 10 µM
[25] = second compound 3 µM, first compound 0.0316 µM
[26] = second compound 3 µM, first compound 0.1 µM
[27] = second compound 3 µM, first compound 0.316 µM
[28] = second compound 3 µM, first compound 1 µM
[29] = second compound 3 µM, first compound 3.16 µM
[30] = second compound 3 µM, first compound 10 µM

Structure (SMILES)	IC50 (second compound 0.03 µM) [µM]	IC50 (second compound 0.0949 µM) [µM]	IC50 (second compound 0.3 µM) [µM]	IC50 (second compound 0.949 µM) [µM]	IC50 (second compound 3 µM) [µM]	viability, T/C [1] [%]	viability, T/C [2] [%]	viability, T/C [3] [%]	viability, T/C [4] [%]	viability, T/C [5] [%]	viability, T/C [6] [%]	viability, T/C [7] [%]	viability, T/C [8] [%]	viability, T/C [9] [%]	viability, T/C [10] [%]	viability, T/C [11] [%]	viability, T/C [12] [%]	viability, T/C [13] [%]	viability, T/C [14] [%]	viability, T/C [15] [%]	other results
C#Cc1c(F)ccc2cc(O)cc(-c3ncc4c(N5CC6CCC(C5)N6)nc(OCC56CCCN5CC(F)C6)nc4c3F)c12 (stereo not given) + CCN1C(C(=O)NC23CCC(C(=O)O)(CC2)CC3)C(c2cccc(Cl)c2F)C2(C(=O)Nc3cc(Cl)ccc32)C12CCCCC2	> 10	> 10	> 10	> 10	> 10	96.4	102	97.6	101	88.7	104	102	110	106	95.8	110	97.4	109	108	117	viability, T/C [16]: 96.9%; viability, T/C [17]: 97.5%; viability, T/C [18]: 99%; viability, T/C [19]: 123%; viability, T/C [20]: 123%; viability, T/C [21]: 115%; viability, T/C [22]: 93%; viability, T/C [23]: 115%; viability, T/C [24]: 103%; viability, T/C [25]: 118%; viability, T/C [26]: 123%; viability, T/C [27]: 129%; viability, T/C [28]: 114%; viability, T/C [29]: 108%; viability, T/C [30]: 114%
C=C(F)C(=O)N1CCN(c2nc(OCC3CCCN3C)nc3c2CCN(c2cccc4cccc(Cl)c24)C3)CC1CC#N (stereo not given) + CCN1C(C(=O)NC23CCC(C(=O)O)(CC2)CC3)C(c2cccc(Cl)c2F)C2(C(=O)Nc3cc(Cl)ccc32)C12CCCCC2	> 10	> 10	> 10	> 10	> 10	124	106	108	102	108	93.2	112	107	113	101	109	96.2	108	114	103	viability, T/C [16]: 115%; viability, T/C [17]: 110%; viability, T/C [18]: 98.1%; viability, T/C [19]: 115%; viability, T/C [20]: 119%; viability, T/C [21]: 117%; viability, T/C [22]: 106%; viability, T/C [23]: 114%; viability, T/C [24]: 105%; viability, T/C [25]: 135%; viability, T/C [26]: 119%; viability, T/C [27]: 117%; viability, T/C [28]: 120%; viability, T/C [29]: 112%; viability, T/C [30]: 114%
